Converted amounts (≈) assume the structure as drawn.
Test system: Mycobacterium tuberculosis
Assay: Antitubercular activity against Mycobacterium tuberculosis H37Rv after 2 weeks by agar dilution method
Assay type: functional
Conditions: 336 h

Row | SMILES | MIC
1 | CC(=O)O[C@@H]1[C@H]2C[C@H](OC(=O)c3ccccc3)[C@]3(COC(=O)c4ccccc4)[C@@H](OC(C)=O)[C@@H](OC(=O)c4ccccc4)C[C@@H](C)[C@@]13OC2(C)C [FOKIENAGAROFURAN A] | 85.9 µM (≈ 60 µg/mL)
2 | COc1cc2ccc(=O)oc2cc1OC [SCOPARONE] | 388 µM (≈ 80 µg/mL)
3 | COc1cc(/C=C\C(=O)OC[C@H](Cc2ccc(O)c(OC)c2)[C@H](COC(=O)/C=C\c2ccc(O)c(OC)c2)Cc2ccc(O)c(OC)c2)ccc1O | 122 µM (≈ 87.2 µg/mL)
4 | CC(=O)O[C@H]1[C@@H](OC(=O)c2ccccc2)C[C@@H](C)[C@]23OC(C)(C)[C@H](C[C@H](OC(=O)c4ccccc4)[C@]12COC(=O)c1ccccc1)[C@H]3OC(=O)c1ccccc1 [FOKIENAGAROFURAN D] | 105 µM (≈ 79.9 µg/mL)
5 | CN1CCCC1=O [METHYLPYRROLIDONE] | > 400 µM
6 | COc1cc(C(=O)C(CO)c2cc(OC)c(O)c(OC)c2)ccc1O (stereo not drawn) [5-METHOXYEVOFOLIN B] | 215 µM (≈ 74.9 µg/mL)
7 | CC(=O)OC[C@]12[C@@H](OC(=O)c3ccccc3)C[C@@H]3[C@@H](OC(C)=O)[C@]1(OC3(C)C)[C@H](C)C[C@H](OC(C)=O)[C@@H]2O [CELAHIN C] | 31.3 µM (≈ 16.7 µg/mL)
8 | CC(=O)OC[C@]12[C@@H](OC(=O)c3ccccc3)C[C@@H]3[C@@H](OC(=O)c4ccccc4)[C@]1(OC3(C)C)[C@H](C)C[C@H](OC(=O)c1ccccc1)[C@@H]2OC(C)=O | 39.6 µM (≈ 27.7 µg/mL)
9 | CC[C@H](CC[C@@H](C)[C@H]1CC[C@H]2[C@@H]3C(=O)C=C4C[C@@H](O)CC[C@]4(C)[C@H]3CC[C@]12C)C(C)C | 128 µM (≈ 54.9 µg/mL)
10 | COc1cc(C(=O)CCO)ccc1O | 153 µM (≈ 30 µg/mL)
11 | COc1cc(C(=O)C(CO)c2ccc(O)c(OC)c2)ccc1O (stereo not drawn) [EVOFOLIN B] | 235 µM (≈ 74.8 µg/mL)
12 | CC(=O)O[C@H]1C[C@@H](C)[C@]23OC(C)(C)[C@H]([C@H](OC(=O)c4ccccc4)[C@H](OC(=O)c4ccccc4)[C@]2(COC(=O)c2ccccc2)[C@H]1OC(C)=O)[C@H]3OC(C)=O | 79.3 µM (≈ 60 µg/mL)
13 | COc1cc(C=O)ccc1O [VANILLIN] | > 400 µM
14 | CC(=O)OC[C@]12[C@@H](OC(=O)c3ccccc3)C[C@@H]3[C@@H](OC(C)=O)[C@]1(OC3(C)C)[C@H](C)C[C@H](O)[C@@H]2OC(C)=O [SALASOL A] | 28.2 µM (≈ 15 µg/mL)
15 | CCOc1cc(C=O)ccc1O [ETHYL VANILLIN] | > 400 µM
16 | COc1cc(/C=C/C(=O)OC[C@H](Cc2ccc(O)c(OC)c2)[C@H](COC(=O)/C=C/c2ccc(O)c(OC)c2)Cc2ccc(O)c(OC)c2)ccc1O | 126 µM (≈ 90.1 µg/mL)
17 | COc1cc(C=O)cc(OC)c1O [SYRINGALDEHYDE] | > 400 µM
18 | COc1cc(O)c2c(c1)O[C@H](c1ccc(O)cc1)CC2=O [SAKURANETIN] | 209 µM (≈ 59.8 µg/mL)
19 | COc1cc(/C=C/C=O)ccc1O [CONIFERYL ALDEHYDE] | > 400 µM
20 | CC[C@@H](CO)NCCN[C@@H](CC)CO [ETHAMBUTOL] | 30.6 µM (≈ 6.25 µg/mL)
21 | CC(=O)O[C@H]1C[C@@H](COC(=O)c2ccccc2)[C@]23OC(C)(C)[C@H](C[C@H](OC(=O)c4ccccc4)[C@]2(C)[C@H]1OC(C)=O)[C@H]3OC(=O)c1ccccc1 | 95 µM (≈ 66.4 µg/mL)
22 | COc1cc(C(=O)O)ccc1O [VANILLIC ACID] | 238 µM (≈ 40 µg/mL)
23 | CC[C@H](CC[C@@H](C)[C@H]1CC[C@H]2[C@@H]3CC=C4C[C@@H](O)CC[C@]4(C)[C@H]3CC[C@]12C)C(C)C [BETA-SITOSTEROL] | > 400 µM
